According to patent publication EP0821957A2 (priority 1996, dated 1998):

Legend:
[1] = target: muscarinic cholinergic receptors; assay: ^3H-oxotremorine-M binding inhibition; conditions: inhibition of binding of ^3H-oxotremorine-M; read-out: inhibition costant (Ki)
m4 receptors = m4 receptors (Homo sapiens, UniProt P08173); assay type: cell-based; conditions: CHO m4 cells treated with pertussis toxin
Chain of m4 receptors (P08173 whole entry): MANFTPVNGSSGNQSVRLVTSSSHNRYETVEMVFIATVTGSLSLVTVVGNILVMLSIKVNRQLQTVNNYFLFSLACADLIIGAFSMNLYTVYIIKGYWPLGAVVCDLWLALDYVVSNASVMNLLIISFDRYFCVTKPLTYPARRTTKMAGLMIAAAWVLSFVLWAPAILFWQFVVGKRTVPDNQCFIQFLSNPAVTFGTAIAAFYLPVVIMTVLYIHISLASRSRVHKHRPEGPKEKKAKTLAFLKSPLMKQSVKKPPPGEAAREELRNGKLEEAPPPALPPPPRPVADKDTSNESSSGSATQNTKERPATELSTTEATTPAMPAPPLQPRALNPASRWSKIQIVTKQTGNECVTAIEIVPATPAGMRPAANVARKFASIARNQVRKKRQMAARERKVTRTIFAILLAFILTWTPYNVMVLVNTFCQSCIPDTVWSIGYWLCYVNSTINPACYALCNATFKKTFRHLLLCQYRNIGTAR

How did the Ki [1] turn out when CCCCCCOc1nsnc1C1=CCCN(C)C1 [Xanomeline, 3-(4-hexyloxy-1,2,5-thiadiazol-3-yl)-1,2,5,6-tetrahydro-1-methylpyridine] was run?
Its Ki is 2 nM.

And the “formation of cAMP” value (m4 receptors)?
Its value is “efficaciously and potently stimulated the formation of cAMP”.
